Like-named read-outs stand apart in the source and are kept apart here.
Columns and labels:
[1] = tested on: KARPAS-422 cells; test: Cell viability assay (Cell Titer Glo) in KARPAS-422 cells; assay type: cell-based; conditions: EZH2 mutant-containing DLBCL cell line KARPAS-422; viability monitored at day 4, day 8 and day 12
Protocol: For suspension cell lines, cells were seeded at their pre-determined optimal seeding density in a 96 well dish in a volume of 70-90 μl, depending on the number of compounds under investigation in a single assay (i.e. single agent assay versus combination assay). A 10× stock solution of the highest desired concentration of the compound of interest was made in growth media. In parallel, a solution containing the same % of diluent as the 10× compound concentration was made for each compound under investigation, also in growth media. Compound was diluted serially in the diluent/growth media solution, and 10 μl of 10× drug was added to the relevant wells of the 96 well dish containing cells. […] Cells were cultured in the presence of compound for 4 days, at which point 100 μl growth media was added, cells were triturated, and the cell density of the diluent only control treatment was determined. A split ratio was determined based on this density, such that the new cell density of diluent treated cells after splitting would match the original cell density from day 0. […] 50 μl CTG reagent was added to all wells containing cells that remained in the original 96 well dish, followed by a 30 min incubation on an orbital shaker, before a luminescence reading was obtained on a Perkin-Elmer Envision. […]

[2] = tested on: PC9 NucRed cells
Protocol: The non-small cell lung cancer (NSCLC) cell line PC9 was transduced with virus expressing nuclear-restricted RFP (NucRed, Essen Biosciences NucLight), and selected with zeocin (Invivogen). […] Every 3-4 days, media was removed, cells were washed with PBS, and fresh growth media containing 1 μM erlotinib was added. DTPs are defined as cells maintaining red fluorescence, while remaining in a non-proliferative state. After a period of time, DTPs regain proliferative capacity, at which point they are deemed drug tolerant expanded persisters (DTEPs) (ibid). Cells were maintained in 12 well dishes in an Incucyte ZOOM (Essen Biosciences) positioned in a humidified tissue culture incubator for the length of each experiment. Whole well phase and fluorescent images were obtained every 12 hours by the Incucyte ZOOM, and cell number quantified using an automated algorithm defined from a training set of images that identifies red fluorescent signal (positive signal pseudocolored blue in figures). In each experiment, relative cell number is quantitated by dividing cell number at each time point by the initial cell number for each well. In some instances, PC9 NucRed cells were pretreated with EZH2 inhibitors, before counting and reseeding at 5×10^4 cells per well for DTP generation assays as described above.
48 hours later, 1 μM erlotinib was added to the cells, and images were obtained every 12 hours via the Incucyte imaging system. […] FIG. 15c is a schematic of experimental design for FIG. 15d and FIG. 15e PC9 NucRed cells were pre-treated with Inhbitor 1 as in FIG. 15a and FIG. 15b, however after 48 hours, were treated with 0.1% DMSO instead of erlotinib.
Media with fresh compounds was changed every 3-4 days. Phase and fluorescent images obtained every 12 hours with Incucyte imaging platform. Cell number determined by red fluorescent nuclei detection by Incucyte.

[3] = tested on: PC9 cells; test: RNA-sequencing and gene set enrichment analysis in PC9 cells; assay type: cell-based; conditions: 2.5 μM pre-treatment 8 days then 1 μM erlotinib; compared to DMSO pre-treated/erlotinib acutely treated cells
Text: For RNA sequencing (RNA-seq) experiments, RNA was submitted to Ocean Ridge Biosciences (Palm Beach Gardens, Fla.) for quality control, library preparation and sequencing. Samples were processed as per the vendor's protocols (http://www.oceanridgebio.com/rna-sequencing.html). Data was processed as previously described (ibid).
Experimental gene lists pre-ranked by differential expression were compared against gene sets in the Molecular Signature Database (MSigDB), v4.0 (http://www.broadinstitute.org/gsea/msigdb/index.jsp). GSEA analyses were run using the weighted scoring option, meandiv normalization, and excluding MSigDB gene sets with more than 1500 or fewer than 15 member genes.
For transcriptomic analysis of PC9 cells, cells were pretreated for 8 days with 2.5 μM CPI-360, with one splitting event and reapplication of fresh drug at day 4. On day 8, without splitting, 0.1% (v/v) DMSO or 1 μM erlotinib was added directly to each vessel, mixed, and incubated for 6 or 24 hours before harvesting. Cells were harvested by aspiration of media, and direct application of buffer RLT to the cell culture plate. RNA was purified as described above.
PC9 cells were pre-treated with 2.5 μM Inhbitor 2 or DMSO for 8 days, with splitting, re-seeding and compound re-fresh at day 4. […] RNA was extracted, and analyzed via RNA-sequencing, then gene set enrichment analysis using msigdb v4.0 (all categories). […]

[4] = pre-treatment 4 days, then 1 μM erlotinib, compared to erlotinib only treated cells

CCS(=O)(=O)N1CCC([C@@H](C)n2c(C)c(C(=O)NCc3c(OC)cc(C)[nH]c3=O)c3ccccc32)CC1 [Inhibitor 1]
sensitivity of cell viability to treatment [1]: temporal sensitivity
reduction in cell number ([2]; 5 μM pre-treatment followed by acute 1 μM erlotinib, compared to DMSO pretreatment, acute erlotinib treatment): 80%
reduction in cell number ([2]; 5 μM pretreatment for 4 days, then acute DMSO treatment, compared to DMSO pretreated cells): 15%
drug tolerant persister (DTP) cells remaining after initial erlotinib treatment [2, 4]: a reduction in the number of drug tolerant persister (DTP) cells
initiation of cell growth inhibition [2, 4]: faster initiation of cell growth inhibition
outgrowth of erlotinib-resistant cells [2, 4]: delayed/reduced outgrowth of erlotinib-resistant cells

COc1cc(C)[nH]c(=O)c1CNC(=O)c1c(C)n([C@H](C)C2CCOCC2)c2ccccc12 [Inhibitor 2]
altered pathways (gene set enrichment analysis) [3]: 3 out of the top 5 altered pathways are interferon-related pathways

C#Cc1cccc(Nc2ncnc3cc(OCCOC)c(OCCOC)cc23)c1 [erlotinib, reference compound]
GI90 dose ([2]; PC9 cells): 1000 nM

From patent publication US20180214519A1, “COMBINATION THERAPIES FOR MODULATION OF HISTONE METHYL MODIFYING ENZYMES” (Constellation Pharmaceuticals, Inc., priority 2015, published 2018)
